Results from PubChem BioAssay (NCI).
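Protocol summary: plate cells (96-well), add compound at 5 concentrations, incubate 48 h, interpolate endpoints linearly. Here, GI50 denotes the concentration required for 50% inhibition of growth. TGI: concentration producing complete growth inhibition.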

Tests used:
Assay in all cases: growth of human tumour cells (NCI), 48 h
SR leukemia = system: SR leukemia
HOP-62 NSCLC = system: HOP-62 NSCLC
MCF7 breast = system: MCF7 breast
SF-539 CNS = system: SF-539 CNS
U251 CNS = system: U251 CNS
UACC-257 melanoma = system: UACC-257 melanoma
ACHN renal = system: ACHN renal
MDA-MB-231 breast = system: MDA-MB-231 breast
CAKI-1 renal = system: CAKI-1 renal
RXF 393 renal = system: RXF 393 renal

| Compound | GI50 (SR leukemia) | TGI (SR leukemia) | GI50 (HOP-62 NSCLC) | TGI (HOP-62 NSCLC) | GI50 (MCF7 breast) | TGI (MCF7 breast) | GI50 (SF-539 CNS) | TGI (SF-539 CNS) | GI50 (U251 CNS) | TGI (U251 CNS) | GI50 (UACC-257 melanoma) | TGI (UACC-257 melanoma) | GI50 (ACHN renal) | TGI (ACHN renal) | GI50 (MDA-MB-231 breast) | TGI (MDA-MB-231 breast) | GI50 (CAKI-1 renal) | TGI (CAKI-1 renal) | GI50 (RXF 393 renal) | TGI (RXF 393 renal) |
| --- | --- | --- | --- | --- | --- | --- | --- | --- | --- | --- | --- | --- | --- | --- | --- | --- | --- | --- | --- | --- |
| Oc1ccc(C2c3ccccc3Oc3ccccc32)c2cccnc12 | 1.97 µM | > 100 µM | 0.979 µM | > 100 µM | 1.74 µM | > 100 µM | 2.53 µM | 25.5 µM | 0.845 µM | > 100 µM | 2.76 µM | > 100 µM | 0.845 µM | 9.58 µM | 4.36 µM | > 100 µM | 0.568 µM | > 100 µM | 1.68 µM | 7.1 µM |
| Fc1cccc(-n2ccc(-c3ccccc3)nc2=S)c1 | 53.6 µM | > 100 µM | > 63.4 µM | > 100 µM | 18.5 µM | 41.2 µM | 17.6 µM | 38.9 µM | 43.2 µM | > 100 µM | 46.7 µM | > 100 µM | 16.7 µM | 30.4 µM | 27.9 µM | > 100 µM | 4.11 µM | 14.3 µM | 15.8 µM | 30 µM |
| CCC(=O)Nc1ccc(C)c(-c2ccc(C(=O)NCC3CC3)cc2)c1 | > 25 µM | > 25 µM | > 25 µM | > 25 µM | > 25 µM | > 25 µM | > 25 µM | > 25 µM | > 25 µM | > 25 µM | > 25 µM | > 25 µM | > 25 µM | > 25 µM | > 25 µM | > 25 µM | > 25 µM | > 25 µM | > 25 µM | > 25 µM |
| Cc1cc2c(C(N)=O)c(N)n(-c3c(C)ccc(O)c3C)c2nc1C | 2.47 µM | > 100 µM | 13 µM | > 100 µM | 3.41 µM | > 100 µM | 0.434 µM | 2.88 µM | 4.23 µM | 34.1 µM | 3.13 µM | 51.6 µM | 1.84 µM | 10.5 µM | 2.12 µM | 13.9 µM | 0.4 µM | 10.3 µM | 0.12 µM | 0.855 µM |
| O=C1/C(=C/c2ccc(Cl)cc2)CCC/C1=C\c1ccc(Cl)cc1 | 2.77 µM | > 100 µM | 8.1 µM | > 100 µM | 2.93 µM | > 100 µM | 7.85 µM | > 100 µM | 2.66 µM | 7.88 µM | 4.17 µM | > 100 µM | 6.83 µM | > 100 µM | 9.83 µM | > 100 µM | > 100 µM | > 100 µM | 1.95 µM | 3.66 µM |
| NS(=O)(=O)c1ccc(N(/C=C/C(=O)C(F)(F)F)Cc2ccc(Cl)cc2)cc1 | 20.5 µM | 43.5 µM | 20 µM | 53.8 µM | 93.9 µM | > 100 µM | 17.4 µM | 34 µM | 26.5 µM | 75.8 µM | 24.1 µM | 52.8 µM | 31.7 µM | 78.1 µM | 18.3 µM | 57.8 µM | 24.4 µM | 72.7 µM | 16 µM | 47 µM |
| CCc1ccc(C(=Nc2ccc(N(C)C(=O)CN3CCN(C)CC3)cc2)c2c(O)[nH]c3ccc(C(=O)OC)cc23)cc1 | 0.164 µM | 0.835 µM | 0.51 µM | 2.17 µM | 0.256 µM | 1.4 µM | 0.426 µM | 1.56 µM | 0.59 µM | 2.02 µM | 1.54 µM | 3.2 µM | 0.332 µM | 1.43 µM | 0.585 µM | 2.09 µM | 0.135 µM | 1.48 µM | 0.22 µM | 1.2 µM |
| COC(=O)c1cc2c3ccccc3[nH]c2c2sccc12 | 12.2 µM | 56.5 µM | 11.2 µM | 39.8 µM | 27 µM | > 100 µM | 21.5 µM | 94.8 µM | 14.3 µM | 34 µM | 89.6 µM | > 100 µM | 13.6 µM | > 100 µM | 5.06 µM | 61.3 µM | 13.7 µM | 98.3 µM | 23.6 µM | 80.4 µM |
| N#Cc1cc(S(=O)(=O)Nc2nnc(-c3ccccc3)c(-c3ccccc3)n2)c(SCc2ccccc2)cc1Cl | 27.5 µM | > 100 µM | 28.3 µM | 83.5 µM | 31 µM | > 100 µM | 30.2 µM | 62.4 µM | 17.8 µM | 33.1 µM | 24.2 µM | 46.4 µM | 21.5 µM | 42.6 µM | 23.3 µM | 83.8 µM | 21.3 µM | 42.1 µM | 6.31 µM | 22.7 µM |
| CCCCCCCCCNC(=O)/C=C/c1ccc(O)c(O)c1 | 2.76 µM | 21 µM | 12.2 µM | 25.1 µM | 28.3 µM | > 100 µM | 15.1 µM | 38.2 µM | 10.2 µM | 23.3 µM | 29.5 µM | 69.6 µM | 6.96 µM | 21.6 µM | 13.2 µM | 34.7 µM | 3.91 µM | 24.2 µM | 19.2 µM | 50.9 µM |
| O=C(Nc1cccc(Cl)c1)c1cccc(NC2=C(Cl)C(=O)N(Cc3ccccc3)C2=O)c1 | 2.32 µM | 10.5 µM | 0.84 µM | 42.8 µM | 25.6 µM | 83.7 µM | 81.8 µM | > 100 µM | 43.1 µM | > 100 µM | 72.5 µM | > 100 µM | 87.4 µM | > 100 µM | 4.54 µM | > 100 µM | 15 µM | 49.1 µM | 85 µM | > 100 µM |
| COc1cc(-c2csc(NC(=O)Nc3ccc(C(F)(F)F)cc3)n2)cc(OC)c1OC | 2.39 µM | 6.79 µM | 2.01 µM | 5.07 µM | 2.21 µM | 7.66 µM | 2.28 µM | 6.68 µM | 1.97 µM | 4.32 µM | 2.47 µM | 5.91 µM | 2.11 µM | 6.13 µM | 1.55 µM | 3.69 µM | 2.41 µM | 8.62 µM | 2.18 µM | 5.89 µM |
